Assay results as given in patent US4332805A, “Decahydroquinolinol derivatives and methods of treating cardiac arrythmias or inducing local anaesthesia with them” (priority 1979, dated 1982).
Where a name gives a salt, the structure may show the parent alone. Read-outs that look alike come from different tables or passages of the source.

Tests used:
[1] = arrhythmia-inducing and lethal dose in continuous venous perfusion; type: in vivo; conditions: anaesthetized dog
[2] = ventricular fibrillation provoked by chloroform or by calcium chloride; conditions: in vivo
acute toxicity [3] = conditions: mouse, in vivo, mice
convulsant dose = type: in vivo; conditions: mice per os; dog i.v.
[4] = protection against toxic effects of epinephrine (antiadrenergic properties); type: in vivo; conditions: mice, 50 mg/kg intragastric, 30 minutes before 3 mg/kg i.v. epinephrine
Protocol: Tests carried out with Compound A have shown that a dose of 50 mg/kg administered by intragastric route to mice 30 minutes before the intravenous injection of 3 mg/kg of epinephrine gave no protection against the toxic effects of this catecholamine.

[5] = hypotensive activity / myocardial contractility; conditions: in vivo
[6] = local anaesthesia, CHANCE and LOBSTEIN technique (eyelid closure after touching cornea); type: in vivo, guinea-pig; conditions: for local anaesthesia, % of animals / local anaesthesia, % of animals protected: guinea-pig eye; for local anaesthesia, % of animals: 0.1% solution, 5 minutes after administration; for local anaesthesia, % of animals protected: 0.5% solution
Protocol: In this way, the percentage of locally anaesthetized animals were determined with respect to both the dose of compound given and the length of time elapsing after administration.

[7] = LAWSON test: protection against chloroform-induced ventricular fibrillation; type: in vivo; conditions: mice, 75 mg/kg intragastric
acute toxicity [8] = conditions: rat, in vivo
Text: Acute toxicity tests were undertaken with Compound A on mice and rats.

[9] = LAWSON test: protection against chloroform-induced ventricular fibrillation; type: in vivo, mice; conditions: Mus musculus, po
Protocol: The arrhythmia was induced, in this test, by inhalation of chloroform until breathing stopped.
For each dose of the substance to be studied, batches of 10 female mice, each of about 20 g, were used. These mice had been fasting for 18 hours before the test. A batch of 10 animals was used as control group.
A dose of the compound to be studied was first administered by intragastric route except to the controls which only received the solvent used with the compound in question. Thirty minutes later, the animals were placed under a dome-shaped receptacle containing a high concentration of chloroform obtained by means of a strongly impregnated pad.
The animals were removed when totally asphyxiated (about 2 minutes later), the thorax was rapidly opened and the ventricular rhythm observed. The dose of the compound under study which protected 50% of the animals against ventricular fibrillation was then determined.
This protective dose is expressed as AD50 in mg/kg in the following Table. […]
Another comparative test was performed under the same conditions with
several compounds included within the scope of U.S. Pat. No. 3,882,129 at
the single dose of 100 mg/kg by intragastric route.
The following results were obtained which are expressed in percentage of protection obtained against the arrhythmic effect at the studied dose: […]

[10] = motor activity (spontaneous motility) / sedation; type: in vivo, mouse
[11] = 30 minutes after administration
[12] = 0.5 h, female mice, intragastric, 30 minutes before chloroform, salts (hydrochloride), read-out: AD50 (dose protecting 50% of the animals against ventricular fibrillation)

In the case of `NC(=O)O[C@@H]1CCN(CCCOc2ccc(F)cc2)[C@H]2CCCC[C@H]12` (relative stereo) [Compound A, 4-Carbamoyloxy-1-[3-(4-fluoro-phenoxy)-propyl]-trans-decahydroquinoline (axial form)], the lethal dose [1] is reported as 84.1 ± 7.1 mg/kg, the TD50 ([1]; in vivo, iv) is reported as 80.6 ± 6 mg/kg and the “protection against ventricular fibrillation provoked by chloroform or by calcium chloride” value [2] is reported as “provides protection against ventricular fibrillation provoked by chloroform or by calcium chloride”. The LD50 (acute toxicity [3]; po, intragastric) was 750 mg/kg, the LD50 (acute toxicity [3]; intravenous) was 42.5 mg/kg and the “safety margin between effective antiarrhythmic dose and convulsant dose” value (convulsant dose) was “good safety margin”. For the same molecule, the “protection against the toxic effects of epinephrine” value [4] was “no protection”, the “hypotensive activity and depression of myocardial contractility” value [5] was “neither a hypotensive agent since its mechanism of action does not result from antiadrenergic properties nor is it a depressant of myocardial contractility” and the “local anaesthetic activity compared with lidocaine” value ([6]; guinea-pig) was “more active than lidocaine as a local anaesthetizing agent and exerts its effects over a longer period of time”. For the same molecule, the “local anaesthesia, % of animals” value [6] was 58%, the “local anaesthesia, % of animals protected” value [6, 11] was 35% and the “% of protection” value [7, 11] was 80%. The “% of protection” value ([7]; 60 minutes after administration) was 65%, the “% of protection” value ([7]; 120 minutes after administration) was 60% and the “% of protection” value ([7]; 180 minutes after administration) was 45%. The “% of protection” value ([7]; 240 minutes after administration) was 30%, the LD50 (acute toxicity [8]; iv) was 47 mg/kg and the LD50 (acute toxicity [8]; po) was over 2000 mg/kg. The ED50 [9, 12] was 45 mg/kg, the ED50 ([9]; mice, per os, read-out: Antiarrhythmic dose (LAWSON AD50 test)) was 45 mg/kg and the “sedative / antiadrenergic at antiarrhythmic doses” value ([10]; mice, 50 mg/kg intragastric) was “neither sedative nor antiadrenergic at antiarrhythmic doses”. For the same molecule, the “depression of spontaneous motility” value ([10]; mice, 50 mg/kg intragastric, 30 minutes later) was “no depression of spontaneous motility” and the motor activity ([10]; mouse) was “does not modify motor activity”.

In the case of `CCN(CC)CC(=O)Nc1c(C)cccc1C` [lidocaine, reference compound], the “local anaesthesia, % of animals” value [6] is reported as 26%, the “local anaesthesia, % of animals protected” value ([6]; 15 minutes after administration) is reported as 35% and the ED50 ([9]; 0.5 h, read-out: AD50 (dose protecting 50% of the animals against ventricular fibrillation)) is reported as 35 mg/kg.

With `NC(=O)O[C@@H]1CCN(CCCOc2cccc3ccccc23)[C@H]2CCCC[C@H]12` (relative stereo) [hydrogen, 3, O, 1-naphthyl, axial, 4-Carbamoyloxy-1-[3-(1-naphthyloxy)-propyl]-trans-decahydroquinoline hydrochloride (axial form)] the ED50 [9, 12] was over 100 mg/kg.
